How the values were obtained:
[1] = molecular target: T1, CYP3A4 (Homo sapiens, UniProt P08684); assay: CYP3A inhibition assay, midazolam 1'-hydroxylase activity in pooled human hepatic microsomal fraction; assay type: biochemical; conditions: pooled human liver microsomes, pH 7.4, probe midazolam (1'-hydroxylation), 0.25 mg/mL microsomal protein
Procedure: Pooled (n≧15 donors) human hepatic microsomal fraction was obtained from BD-Gentest (Woburn, Mass.) who also supplied hydroxy-terfenadine, 4′-hydroxydiclofenac and NADPH regenerating system. Ritonavir was prepared from commercial Norvir® oral solution (Abbott Laboratories, Abbott Park, Ill.). Other reagents were from Sigma-Aldrich (St. Louis, Mo.) and included terfenadine, fexofenadine, BRL 15572, diclofenac and mefenamic acid. […]
(§1) IC50 values (the concentration of inhibitor reducing CYP3A activity by 50%) were calculated by non-linear regression using GraphPad Prism 4.0 software and a sigmoidal model.
[…] For testosterone hydroxylase activity the final microsomal protein concentration was 0.5 mg/mL, the substrate concentration was 50 μM and the LC-MS internal standard was D7-labeled 6β-hydroxytestosterone. After incubation at 37° C. for 5 minutes, metabolic reactions were terminated by treatment with quench solution containing the appropriate internal standard and were subsequently centrifuged before aliquots of the supernatant were removed and diluted with 0.1% (v/v) formic acid for LC-MS analysis.
(§2) For LC-MS analysis the column was a Phenomenex Synergi Max RP 4 μm column (50×2.0 mm) and the injection volume was 5 μL. The MS/MS ion current metabolite/internal standard peak area ratios (PAR) were measured on an Applied Biosystems SciEx API4000 triple quadrupole mass spectrometer coupled to a Leap CTC PAL autosampler with a 20 μL loop and a Shimadzu LC pump with a 25 μL mixer. The initial mobile phase consisted of 94.9% water, 0.1% formic acid, and 5% acetonitrile (v/v/v) pumped at 0.5 mL/min. After 0.5 min the acetonitrile concentration was increased to 30% over 0.5 min. The acetonitrile concentration was then further increased to 100% over 0.5 min and held for 1.3 min, after which the column was re equilibrated at the initial conditions for 1.2 min. Rates of metabolite formation were determined from standard curves using PAR determined with authentic metabolite standards.

[2] = molecular target: T1, CYP3A4; assay: CYP3A inhibition assay, testosterone 6β-hydroxylase activity in pooled human hepatic microsomal fraction
Procedure: Pooled (n≧15 donors) human hepatic microsomal fraction was obtained from BD-Gentest (Woburn, Mass.) who also supplied hydroxy-terfenadine, 4′-hydroxydiclofenac and NADPH regenerating system. Ritonavir was prepared from commercial Norvir® oral solution (Abbott Laboratories, Abbott Park, Ill.). Other reagents were from Sigma-Aldrich (St. Louis, Mo.) and included terfenadine, fexofenadine, BRL 15572, diclofenac and mefenamic acid.
Incubations were performed in duplicate in 50 mM potassium phosphate buffer, pH 7.4 with NADPH regenerating system used as described by the manufacturer. […] The final substrate concentrations used were equal to the apparent Km values for the activities determined under the same conditions. Inhibitors were dissolved in DMSO, and the final concentration of DMSO, from both substrate and inhibitor vehicles, was 1% (v/v). Incubations were performed at 37° C. with shaking and were initiated by addition of substrate. Aliquots were then removed at 0, 7 and 15 minutes. Samples were quenched by treatment with an acetonitrile, formic acid, water (94.8%/0.2%/5%, v/v/v) mixture containing internal standard. Precipitated protein was removed by centrifugation at 3000 rpm for 10 min and aliquots of the supernatant were then subjected to LC-MS analysis.
The LC-MS system consisted of a Waters Acquity UPLC, with a binary solvent manager and a refrigerated (8° C.) sample organizer and sample manager, interfaced to a Micromass Quattro Premier tandem mass spectrometer operating in electrospray ionization mode. The column was a Waters Acquity UPLC BEH C18 2.1×50 mm, 1.7 μm pore size. Mobile phases consisted of mixtures of acetonitrile, formic acid and water, the composition for mobile phase A being 1%/0.2%/98.8% (v/v/v) and that for mobile phase B being 94.8%/0.2%/5% (v/v/v). The injection volumes were 5 μL and the flow rate was 0.8 mL/min. Concentrations of metabolites were determined by reference to standard curves generated with authentic analytes under the same conditions as the incubations.
as §1
For midazolam hydroxylase determination the final concentrations of microsomal protein and […] substrate were 0.25 mg/mL and 2.5 μM, respectively, and the LC-MS internal standard was 1α-hydroxytriazolam. For testosterone hydroxylase activity the final microsomal protein concentration was 0.5 mg/mL, the substrate concentration was 50 μM and the LC-MS internal standard was D7-labeled 6β-hydroxytestosterone. After incubation at 37° C. for 5 minutes, metabolic reactions were terminated by treatment with quench solution containing the appropriate internal standard and were subsequently centrifuged before aliquots of the supernatant were removed and diluted with 0.1% (v/v) formic acid for LC-MS analysis.
as §2

T1 sequence (P08684 2-503): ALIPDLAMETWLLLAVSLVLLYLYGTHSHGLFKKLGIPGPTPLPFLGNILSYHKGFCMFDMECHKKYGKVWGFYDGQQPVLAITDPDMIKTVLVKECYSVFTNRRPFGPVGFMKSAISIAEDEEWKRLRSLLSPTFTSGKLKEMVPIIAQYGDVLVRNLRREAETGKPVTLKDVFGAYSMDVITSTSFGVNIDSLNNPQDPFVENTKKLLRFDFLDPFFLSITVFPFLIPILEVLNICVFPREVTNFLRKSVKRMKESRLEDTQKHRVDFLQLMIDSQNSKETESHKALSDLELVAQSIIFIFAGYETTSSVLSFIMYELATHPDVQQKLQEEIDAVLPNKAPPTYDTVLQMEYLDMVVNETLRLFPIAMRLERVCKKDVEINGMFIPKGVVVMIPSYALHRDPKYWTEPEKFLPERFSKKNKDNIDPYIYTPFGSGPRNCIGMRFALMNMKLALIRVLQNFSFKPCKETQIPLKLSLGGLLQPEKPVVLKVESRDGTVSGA

Compound `CC(C)[C@H](NC(=O)N1CCOCC1)C(=O)N[C@H](CC[C@H](Cc1ccccc1)NC(=O)OCc1cncs1)Cc1ccccc1` [Compound 27] has an IC50 at 5 min [1] of 0.11 µM and an IC50 [2] of 250 nM.

For `Cc1ncsc1CCC(=O)N[C@H](CC[C@H](Cc1ccccc1)NC(=O)[C@@H](NC(=O)N(C)Cc1csc(C(C)C)n1)C(C)C)Cc1ccccc1` [Compound 90], the IC50 at 5 min [1] was 0.19 µM and the IC50 [2] was 450 nM.

With `CC(=O)NCC[C@H](NC(=O)N1CCCCC1)C(=O)N[C@H](CC[C@H](Cc1ccccc1)NC(=O)OCc1cncs1)Cc1ccccc1` [Compound 40] the IC50 at 5 min [1] was 0.1 µM and the IC50 [2] was 220 nM.

With `CC(C)(C)OC(=O)N[C@@H](CCN1CCOCC1)C(=O)N[C@H](CC[C@H](Cc1ccccc1)NC(=O)OCc1cncs1)Cc1ccccc1` [Compound 54] the IC50 at 5 min [1] was < 0.1 µM and the IC50 [2] was 410 nM.

For `CC(C)[C@H](NC(=O)N(C)C(C)C)C(=O)N[C@H](CC[C@H](Cc1ccccc1)NC(=O)OCc1cncs1)Cc1ccccc1` [Compound 29], the IC50 at 5 min [1] was < 0.1 µM and the IC50 [2] was 320 nM.

`CN(Cc1ccco1)C(=O)N[C@@H](CCN1CCOCC1)C(=O)N[C@H](CC[C@H](Cc1ccccc1)NC(=O)OCc1cncs1)Cc1ccccc1` [Compound 60] gave an IC50 at 5 min [1] of 0.13 µM and an IC50 [2] of 290 nM.

With `COCCN(C)C(=O)N[C@@H](CCN1CCOCC1)C(=O)N[C@H](CC[C@H](Cc1ccccc1)NC(=O)OCc1cncs1)Cc1ccccc1` [Compound 21] the IC50 at 5 min [1] was 0.26 µM and the IC50 [2] was 560 nM.

Work on `CN(Cc1ccccn1)C(=O)N[C@@H](CCN1CCOCC1)C(=O)N[C@H](CC[C@H](Cc1ccccc1)NC(=O)OCc1cncs1)Cc1ccccc1` [Compound 61] yielded an IC50 at 5 min [1] of 0.19 µM and an IC50 [2] of 530 nM.

`O=C(N[C@H](CC[C@H](Cc1ccccc1)NC(=O)[C@@H]1C[C@@H](O)CN1C(=O)OCc1ccccc1)Cc1ccccc1)OCc1cncs1` [Compound 67] showed an IC50 at 5 min [1] of 0.18 µM and an IC50 [2] of 210 nM.

In the case of `CC(=O)NCC[C@H](NC(=O)N(C)C(C)C)C(=O)N[C@H](CC[C@H](Cc1ccccc1)NC(=O)OCc1cncs1)Cc1ccccc1` [Compound 35], the IC50 at 5 min [1] is reported as 0.15 µM and the IC50 [2] is reported as 150 nM.

With `CC(C)c1nc(CN(C)C(=O)N[C@H](C(=O)N[C@H](CC[C@H](Cc2ccccc2)NC(=O)CCc2cccs2)Cc2ccccc2)C(C)C)cs1` [Compound 89] the IC50 at 5 min [1] was 0.7 µM and the IC50 [2] was 2300 nM.

In the case of `CN(C(=O)N[C@@H](CCN1CCOCC1)C(=O)N[C@H](CC[C@H](Cc1ccccc1)NC(=O)OCc1cncs1)Cc1ccccc1)C1CCCCC1` [Compound 19], the IC50 at 5 min [1] is reported as 0.18 µM and the IC50 [2] is reported as 280 nM.

Compound `O=C(N[C@H](CC[C@H](Cc1ccccc1)NC(=O)[C@H](CCN1CCOCC1)NC(=O)N1CCOCC1)Cc1ccccc1)OCc1cncs1` [Compound 12] has an IC50 at 5 min [1] of 0.2 µM and an IC50 [2] of 640 nM.

`CN1CCN(C(=O)N[C@@H](CCN2CCOCC2)C(=O)N[C@H](CC[C@H](Cc2ccccc2)NC(=O)OCc2cncs2)Cc2ccccc2)CC1` [Compound 15] was tested, and the IC50 at 5 min [1] was 0.41 µM and the IC50 [2] was 1100 nM.

`CC(C)c1nc(CN(C)C(=O)N[C@H](C(=O)N[C@H](CC[C@H](Cc2ccccc2)NC(=O)OCc2cccnc2)Cc2ccccc2)C(C)C)cs1` [Compound 73] gave an IC50 at 5 min [1] of 0.16 µM and an IC50 [2] of 450 nM.

Compound `CC(C)N(C)C(=O)N[C@@H](CCN1CCOCC1)C(=O)N[C@H](CC[C@H](Cc1ccccc1)NC(=O)OCc1cncs1)Cc1ccccc1` [Compound 7] has an IC50 at 5 min [1] of 0.14 µM and an IC50 [2] of 310 nM.

With `CN(Cc1cccnc1)C(=O)N[C@@H](CCN1CCOCC1)C(=O)N[C@H](CC[C@H](Cc1ccccc1)NC(=O)OCc1cncs1)Cc1ccccc1` [Compound 59] the IC50 at 5 min [1] was < 0.1 µM and the IC50 [2] was 450 nM.

Compound `CN(Cc1ccccc1)C(=O)N[C@@H](CCN1CCOCC1)C(=O)N[C@H](CC[C@H](Cc1ccccc1)NC(=O)OCc1cncs1)Cc1ccccc1` [Compound 17] has an IC50 at 5 min [1] of 0.13 µM and an IC50 [2] of 300 nM.

Work on `O=C(NC1CCCCC1)N[C@@H](CCN1CCOCC1)C(=O)N[C@H](CC[C@H](Cc1ccccc1)NC(=O)OCc1cncs1)Cc1ccccc1` [Compound 18] yielded an IC50 at 5 min [1] of 0.18 µM and an IC50 [2] of 350 nM.

`CC(C)N(C)C(=O)N[C@H](CCN1CCOCC1)C(=O)N[C@H](CC[C@H](Cc1ccccc1)NC(=O)OCc1cncs1)Cc1ccccc1` [Compound 53] was tested, and the IC50 at 5 min [1] was < 0.1 µM and the IC50 [2] was 260 nM.

In the case of `CC(=O)NCC[C@H](NC(=O)N1CCCCC1)C(=O)N[C@@H](CC[C@@H](Cc1ccccc1)NC(=O)OCc1cncs1)Cc1ccccc1` [Compound 41], the IC50 at 5 min [1] is reported as < 0.1 µM and the IC50 [2] is reported as 400 nM.

`CN(C)C(=O)N[C@@H](CCN1CCOCC1)C(=O)N[C@H](CC[C@H](Cc1ccccc1)NC(=O)OCc1cncs1)Cc1ccccc1` [Compound 16] showed an IC50 at 5 min [1] of 0.15 µM and an IC50 [2] of 710 nM.

With `CN(C(=O)N[C@@H](CCN1CCOCC1)C(=O)N[C@H](CC[C@H](Cc1ccccc1)NC(=O)OCc1cncs1)Cc1ccccc1)C(C)(C)C` [Compound 11] the IC50 at 5 min [1] was 0.13 µM and the IC50 [2] was 420 nM.

Compound `CC(C)CN(C)C(=O)N[C@@H](CCN1CCOCC1)C(=O)N[C@H](CC[C@H](Cc1ccccc1)NC(=O)OCc1cncs1)Cc1ccccc1` [Compound 14] has an IC50 at 5 min [1] of 0.13 µM and an IC50 [2] of 320 nM.

In the case of `CN(Cc1ccc(F)cc1)C(=O)N[C@@H](CCN1CCOCC1)C(=O)N[C@H](CC[C@H](Cc1ccccc1)NC(=O)OCc1cncs1)Cc1ccccc1` [Compound 20], the IC50 at 5 min [1] is reported as 0.11 µM and the IC50 [2] is reported as 360 nM.

`O=C(N[C@H](CC[C@H](Cc1ccccc1)NC(=O)[C@H](CCN1CCOCC1)NC(=O)N1CCCC1)Cc1ccccc1)OCc1cncs1` [Compound 10] gave an IC50 at 5 min [1] of 0.22 µM and an IC50 [2] of 320 nM.

`CC(C)[C@H](NC(=O)N1CCN(C)CC1)C(=O)N[C@H](CC[C@H](Cc1ccccc1)NC(=O)OCc1cncs1)Cc1ccccc1` [Compound 28] gave an IC50 at 5 min [1] of 0.19 µM and an IC50 [2] of 470 nM.

Work on `CC(C)c1nc(CN(C)C(=O)N[C@H](C(=O)N[C@H](CC[C@H](Cc2ccccc2)NC(=O)OC(C)(C)C)Cc2ccccc2)C(C)C)cs1` [Compound 70] yielded an IC50 at 5 min [1] of 0.72 µM and an IC50 [2] of 1500 nM.

`CC(=O)NCC[C@H](NC(=O)N(C)C(C)C)C(=O)N[C@@H](CC[C@@H](Cc1ccccc1)NC(=O)OCc1cncs1)Cc1ccccc1` [Compound 36] was tested, and the IC50 at 5 min [1] was < 0.1 µM and the IC50 [2] was 240 nM.
